Data on 17 compounds can be found in ChEMBL document CHEMBL5385851, “Natural quinazolinones: From a treasure house to promising anticancer leads” (Eur J Med Chem, 2023).

Experiment [1] has as its system MCF7. Put plainly: Cytotoxicity against human MCF7 assessed as reduction in cell viability incubated for 24 hrs by MTT assay. The class given is functional, cell-based. The settings on record: MCF7, 24 h. In general terms: Tetrazolium dyes change colour on reduction, which living cells bring about.
The subject of experiment [2] is SK-MEL-28. Put plainly: Cytotoxicity against human SK-MEL-28 cells assessed as reduction in cell growth. It is filed as functional, cell-based.
Experiment [3] can be described thus: Antiproliferative activity against human U373 cells assessed as reduction in cell viability. It is filed as functional, cell-based. The settings on record: U373 MG.
Experiment [4] relates to Hs 683. Description: Cytotoxicity against human Hs 683 cells assessed as reduction in cell viability by MTT assay. It is filed as functional, cell-based.
In experiment [5] the test system is A549. Put plainly: Cytotoxicity against human A549 cells assessed as inhibition of cell growth measured after 72 hrs by MTT assay. The class given is functional, cell-based. To be noted: A549, 72 h.
For the next experiment, the system named is PC-3. Description: Cytotoxicity against human PC-3 cells assessed as inhibition of cell growth. It is filed as functional, cell-based.
For another experiment, the system named is SNU1. Put plainly: Cytotoxicity against human SNU1 cells assessed as inhibition of cell growth measured after 72 hrs by cell titer glo assay. It is filed as functional, cell-based. To be noted: SNU1, 72 h.
Another experiment deals with AGS. Put plainly: Cytotoxicity against human AGS cells assessed as reduction in cell viability incubated for 48 hrs by MTT assay. The class given is functional, cell-based.
For a further experiment, the system named is KB. Description: Cytotoxicity against human KB cells assessed as cell growth inhibition. The class given is functional, cell-based.
Experiment [6] concerns HCT-116. Put plainly: Cytotoxicity against human HCT-116 cells assessed as reduction in cell viability incubated for 24 hrs by MTT assay. The class given is functional, cell-based. The settings on record: HCT-116, 24 h.
For experiment [7], the system named is P388. Put plainly: Cytotoxicity against mouse P388 cells assessed as reduction in cell growth. It is filed as functional. To be noted: read-out: ED50 (the source's name).
Experiment [8] concerns HCT-116. Description: Cytotoxicity against human HCT-116 cells assessed as reduction in cell growth incubated for 48 hrs by MTT assay. The class given is functional, cell-based. The settings on record: HCT-116, 48 h.
Experiment [9] deals with A549. Description: Antiproliferative activity against human A549 cells assessed as cell growth inhibition measured after 72 hrs by MTT assay. It is filed as functional, cell-based. To be noted: A549, 72 h.
Experiment [10] concerns A-375. Put plainly: Cytotoxicity against human A-375 cells assessed as reduction in cell growth incubated for 48 hrs by MTT assay. It is filed as functional, cell-based. The settings on record: A-375, 48 h.
Experiment [11] has as its system HepG2. Put plainly: Cytotoxicity against human HepG2 cells assessed as cell growth inhibition measured after 48 hrs by MTT assay. The class given is functional, cell-based. To be noted: HepG2, 48 h.
For experiment [12], the system named is K562. Description: Cytotoxicity against human K562 cells assessed as reduction in cell viability incubated for 24 hrs by MTT assay. The class given is functional, cell-based. The settings on record: K562, 24 h.
In another experiment the test system is SW 1116. Put plainly: Antiproliferative activity against human […] cells assessed as reduction in cell viability incubated for 24 hrs by MTT assay. It is filed as functional, cell-based. To be noted: SW 1116, 24 h.
Experiment [13] relates to HCT-116. Description: Antiproliferative activity against human HCT-116 cells assessed as inhibition of cell growth incubated for 48 hrs by MTT based colorimetric assay. It is filed as functional. To be noted: HCT-116, 48 h.
The test system of experiment [14] is A549. Description: Antiproliferative activity against human A549 cells assessed as cell growth inhibition incubated for 48 hrs by MTT assay. To be noted: A549, 48 h. The class given is functional, cell-based.
Experiment [15] deals with A-375. Description: Antiproliferative activity against human A-375 cells assessed as inhibition of cell growth incubated for 48 hrs by MTT based colorimetric method. It is filed as functional. To be noted: A-375, 48 h.
Experiment [16] concerns HepG2. Put plainly: Antiproliferative activity against human HepG2 cells assessed as inhibition of cell growth incubated for 48 hrs by MTT based colorimetric assay. It is filed as functional. To be noted: HepG2, 48 h.
Experiment [17] relates to P388. Put plainly: Cytotoxicity against mouse P388 cells assessed as inhibition of cell growth. The class given is functional, cell-based.
The test system of experiment [18] is K562. Put plainly: Cytotoxicity against human K562 cells assessed as cell growth inhibition after 48 hrs by MTT assay. The class given is functional, cell-based. The settings on record: K562, 48 h.
In experiment [19] the test system is A549. Description: Antiproliferative activity against human A549 cells assessed as cell growth inhibition. It is filed as functional, cell-based.
In experiment [20] the test system is HepG2. Description: Antiproliferative activity against human HepG2 cells assessed as reduction in cell viability incubated for 72 hrs by CCK-8 assay. The settings on record: HepG2, 72 h. It is filed as functional, cell-based.
Experiment [21] concerns SK-MEL-28. Description: Cytotoxicity against human SK-MEL-28 cells assessed as inhibition of cell growth incubated for 72 hrs by MTT assay. To be noted: SK-MEL-28, 72 h. It is filed as functional, cell-based.
For experiment [22], the system named is MCF7. Put plainly: Antiproliferative activity against human MCF7 cells assessed as reduction in cell viability incubated for 48 hrs by MTT assay. The class given is functional, cell-based. The settings on record: MCF7, 48 h.
Experiment [23] in a line: Antiproliferative activity against human U373 cells assessed as inhibition of cell growth measured after 72 hrs by CTG assay. To be noted: U373 MG. It is filed as functional, cell-based.
For experiment [24], the target named is Indoleamine 2,3-dioxygenase 1 (Homo sapiens, UniProt P14902). Description: Inhibition of IDO1 in human HeLa cells. It is filed as cell-based.
Sequence of Indoleamine 2,3-dioxygenase 1 (P14902 whole entry): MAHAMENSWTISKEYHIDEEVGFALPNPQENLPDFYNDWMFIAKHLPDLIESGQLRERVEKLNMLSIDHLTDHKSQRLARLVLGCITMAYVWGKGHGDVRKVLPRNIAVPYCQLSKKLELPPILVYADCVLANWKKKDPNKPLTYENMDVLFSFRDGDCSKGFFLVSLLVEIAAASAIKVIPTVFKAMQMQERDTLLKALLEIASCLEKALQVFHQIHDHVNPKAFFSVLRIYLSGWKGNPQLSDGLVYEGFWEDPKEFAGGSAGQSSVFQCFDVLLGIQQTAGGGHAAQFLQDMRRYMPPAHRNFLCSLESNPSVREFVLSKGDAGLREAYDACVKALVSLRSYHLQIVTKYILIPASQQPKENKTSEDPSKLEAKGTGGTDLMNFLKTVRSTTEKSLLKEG
Experiment [25] has as its target Tryptophan 2,3-dioxygenase (Homo sapiens, UniProt P48775). Put plainly: Inhibition of TDO (unknown origin) expressed in HEK293 cells. It is filed as cell-based.
In experiment [26] the test system is HepG2. Put plainly: Cytotoxicity against human HepG2 cells assessed as reduction in cell viability incubated for 24 hrs by MTT based colorimetric assay. It is filed as functional. The settings on record: HepG2, 24 h.
In experiment [27] the test system is A549. Put plainly: Cytotoxicity against human A549 cells assessed as reduction in cell growth. It is filed as functional, cell-based.
Experiment [28] concerns Hs 683. Put plainly: Cytotoxicity against human Hs 683 cells. It is filed as functional, cell-based.
Experiment [29] can be described thus: Cytotoxicity against human U373 cells assessed as reduction in cell viability after 24 hrs by MTT assay. The class given is functional, cell-based. The settings on record: U373 MG.
Experiment [30] relates to MCF7. Put plainly: Cytotoxicity against human MCF7 cells assessed as reduction in cell viability by SRB assay. The class given is functional, cell-based.
Experiment [31] deals with HCT-116. Put plainly: Cytotoxicity against human HCT-116 cells assessed as cell growth inhibition incubated for 24 hrs by MTT based colorimetric assay. The settings on record: HCT-116, 24 h. It is filed as functional.
Experiment [32] relates to SK-MEL-28. Put plainly: Cytotoxicity against human SK-MEL-28 cells assessed as reduction in cell viability measured after 24 hrs by MTT assay. It is filed as functional, cell-based. To be noted: SK-MEL-28, 24 h.
Experiment [33] deals with A549. Description: Cytotoxicity against human A549 cells assessed as reduction in cell growth incubated for 5 days by MTT assay. The class given is functional, cell-based. The settings on record: A549, 120 h.

Converted amounts (≈) assume the structure as drawn.

Sequence of Tryptophan 2,3-dioxygenase (P48775 whole entry): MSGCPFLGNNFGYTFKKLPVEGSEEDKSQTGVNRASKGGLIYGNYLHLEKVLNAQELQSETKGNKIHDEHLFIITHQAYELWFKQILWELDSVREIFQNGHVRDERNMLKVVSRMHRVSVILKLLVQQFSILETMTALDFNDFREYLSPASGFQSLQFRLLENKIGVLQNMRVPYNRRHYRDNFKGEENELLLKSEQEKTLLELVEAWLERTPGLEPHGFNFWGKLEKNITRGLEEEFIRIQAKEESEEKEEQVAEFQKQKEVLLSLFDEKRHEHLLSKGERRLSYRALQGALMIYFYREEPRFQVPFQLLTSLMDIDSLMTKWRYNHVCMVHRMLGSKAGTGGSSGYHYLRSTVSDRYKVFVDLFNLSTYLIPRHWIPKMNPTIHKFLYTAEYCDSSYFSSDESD

Turning to `O=C1N[C@H]2c3[nH]c4ccccc4c3C[C@@H]1n1c2nc2ccccc2c1=O`, the concentration for half-maximal inhibition (IC50) in the experiment with MCF7 [1] is 43 µM; in the experiment on SK-MEL-28 [2], 73 µM; in [3], 50 µM; in the experiment on Hs 683 [4], 50 µM; in the experiment on A549 [5], 39 µM.
For the compound `COc1ccc2c(=O)n3c(nc2c1)-c1[nH]c2ccccc2c1CC3`, the IC50 in the experiment on PC-3 is 19.4 µM.
On to `O=C(C[C@H]1NCCC[C@@H]1O)Cn1cnc2ccccc2c1=O`, for which the 50% inhibitory concentration (IC50) in the experiment on SNU1 came out at 0.05 µg/mL (≈ 0.166 µM); in the experiment on AGS, 0.17 µg/mL (≈ 0.564 µM).
In the case of `C=CC(C)(C)[C@@]12C[C@H]3c4nc5ccccc5c(=O)n4[C@H](C)C(=O)N3[C@@H]1N(C(C)=O)c1ccccc12`, the half-inhibitory concentration (IC50) with KB was 107 µM.
`O=Cc1c(-c2nc3ccccc3c(=O)[nH]2)[nH]c2ccccc12`: the half-inhibitory concentration (IC50) in the experiment on HCT-116 [6] worked out at 12.1 µM.
As for `CO[C@@]1(C)NC(=O)[C@@H](C[C@]2(O)c3ccccc3N3C(=O)[C@H](C)N[C@@H]32)n2c1nc1ccccc1c2=O`, in the experiment on P388 [7], the EC50 was found to be 13.8 µg/mL (≈ 29 µM).
`CC(C)[C@@H]1NC(=O)[C@@H](C[C@]2(O)c3ccccc3N3C(=O)[C@H](C)N[C@H]32)n2c1nc1ccccc1c2=O`: the IC50 with HCT-116 [8] came out at 123 µM; in the experiment on A549 [9], 0.54 µM; in the experiment with A-375 [10], 169 µM; in the experiment with HepG2 [11], 53 µM.
As to `C[C@H]1C(=O)N2c3ccccc3[C@@]3(O)C[C@@H](n4cnc5ccccc5c4=O)C(=O)N1[C@@H]23`, the values for the half-inhibitory concentration (IC50) with K562 [12] and with SW 1116 were 0.035 µM and 0.034 µM, respectively.
`CC(=O)O[C@H](c1nc2ccccc2c(=O)n1[C@@H]1C[C@@]2(OC1=O)c1ccccc1N1C(=O)C(C)(C)N(O)[C@H]12)C(C)C`: the concentration for half-maximal inhibition (IC50) in the experiment with HCT-116 [13] amounted to 114 µM; in the experiment with A549 [14] it was 0.54 µM; in the experiment with A-375 [15], 108 µM; with HepG2 [16], 58 µM.
For the compound `O=C(c1cnc2ccccc2c1)c1nc2ccccc2c(=O)[nH]1`, the IC50 in the experiment with P388 [17] turned out to be 2.3 µg/mL (≈ 7.63 µM).
For `COc1ccc2c(=O)n3ccc4c5ccccc5[nH]c4c3nc2c1`, the IC50 in the experiment with PC-3 turned out to be 22.1 µM.
In the case of `C[C@@]12NC(=O)[C@@H](CC13c1ccccc1N1C(=O)CN[C@@H]13)n1c2nc2ccccc2c1=O` (stereo partly specified), the concentration for half-maximal inhibition (IC50) with K562 [18] was 50 µM.
With `CC1(C)C(=O)N2c3ccccc3[C@@]3(C[C@@H](n4cnc5ccccc5c4=O)C(=O)O3)[C@@H]2N1C=O`, the half-inhibitory concentration (IC50) was > 100 µM in the experiment on A549 [19]; 235 µM with HepG2 [20]; > 100 µM in the experiment with SK-MEL-28 [21]; 91 µM in the experiment with MCF7 [22]; > 100 µM in experiment [23].
Take `CN(C)CCc1ccc2nc3n(c(=O)c2c1)C1C=CC(F)=CC1C3=O` (stereo unspecified): the IC50 was 0.02 µM in experiment [24] and 0.06 µM in [25].
On to `C[C@@H]1N[C@H]2N(C1=O)c1ccccc1[C@@]2(O)C[C@@H]1C(=O)N[C@H](C)c2nc3ccccc3c(=O)n21`, for which the EC50 with P388 [7] amounted to 16 µg/mL (≈ 35.9 µM).
For `C=CC(C)(C)[C@@]12C[C@@]3(O)c4nc5ccccc5c(=O)n4[C@H](C)C(=O)N3[C@@H]1N(C(C)=O)c1ccccc12`, the IC50 with KB came out at 61.4 µM.
Consider `CC(C)[C@H]1NC(=O)[C@@H](C[C@]2(O)c3ccccc3N3C(=O)[C@H](C)N[C@H]32)n2c1nc1ccccc1c2=O`, for which the half-maximal inhibitory concentration (IC50) is 115 µM in the experiment with HepG2 [26]; 0.54 µM with A549 [27]; > 100 µM in the experiment with Hs 683 [28]; > 100 µM in experiment [29]; > 100 µM in the experiment on MCF7 [30]; 277 µM with HCT-116 [31]. Moreover, the 50% inhibitory concentration (IC50) in the experiment on SK-MEL-28 [32] and with A549 [33] was > 100 µM throughout.

The term IC50 denotes the point on the concentration scale where inhibition reaches its midpoint.
